Experimental data reported in PMC3982398 (Biochemical pharmacology, 2009).
Where two headings read alike, the source gives them in different places.

How the values were obtained:
human hepatic microsomes [1] = assay type: in vitro ADME; conditions: ketoconazole 0.5 μM, troleandomycin 50 μM, sulfaphenazole 40 μM; for decrease in formation of M2a: lansoprazole 10 μM; for decrease in the aggregate (total) amount of metabolites formed: α-naphthoflavone 0.05 μM
[2] = test system: human placental microsomes; conditions: sulfaphenazole 10 μM, lansoprazole 10 μM, troleandomycin 50 and 200 μM, quinidine 5 μM, 4-methylpyrazole 25 μM
[3] = test system: human placental microsomes
human hepatic microsomes [4] = test system: human hepatic microsomes
[5] = compared with glyburide; ref [12], [13]; cited from earlier work
CYP19 = conditions: ref [27]; cited from earlier work
[6] = cited from earlier work

With `Nc1ccc(S(=O)(=O)Nc2ccnn2-c2ccccc2)cc1` [sulfaphenazole] the “decrease in formation of M1” value (human hepatic microsomes [1]) was “approximately 40%”, the “decrease in formation of M2b” value (human hepatic microsomes [1]) was “approximately 40%” and the “decrease in formation of M3” value (human hepatic microsomes [1]) was ≤ 20%. The “decrease in formation of M4” value (human hepatic microsomes [1]) was ≤ 20%, the “decrease in formation of M5” value (human hepatic microsomes [1]) was ≤ 20% and the “decrease in formation of M2a” value (human hepatic microsomes [1]) was “approximately 40%”. For the same compound, the “decrease in the aggregate (total) amount of metabolites formed” value (human hepatic microsomes [1]) was 28% and the “effect on the aggregate amount of metabolites” value (“effect on the aggregate amount” below) [2] was “negligible”.

In the case of `C[C@]12CCC(=O)C(O)=C1CC[C@@H]1[C@@H]2CC[C@]2(C)C(=O)CC[C@@H]12` [4-hydroxyandrostenedione], the “decrease in M5 formation” value ([2]; 4-hydroxyandrostenedione 10 μM, α-naphthoflavone 0.05 μM) is reported as 87%.

For `C=C[C@H]1C[N@@]2CC[C@H]1C[C@@H]2[C@@H](O)c1ccnc2ccc(OC)cc12` [quinidine], the “effect on the aggregate amount” value [2] was “negligible”.

For `COc1ccc(Cl)cc1C(=O)NCCc1ccc(S(=O)(=O)NC(=O)N[C@H]2CC[C@@H](O)CC2)cc1` [M2a, 4-cis-hydroxycyclohexyl glyburide], the “amount of metabolite formed as percent of the total metabolites” value (“amount … as percent of the total metabolites” below) [3] was “negligible” and the “amount … as percent of the total metabolites” value (human hepatic microsomes [4]) was 11%.

In the case of `Cc1c(OCC(F)(F)F)ccnc1C[S+]([O-])c1nc2ccccc2[nH]1` (stereo not drawn) [lansoprazole], the “decrease in formation of M2a” value (human hepatic microsomes [1]) is reported as “≈ 20%” and the “effect on the aggregate amount” value [2] is reported as “negligible”.

In the case of `COc1ccc(Cl)cc1C(=O)NCCc1ccc(S(=O)(=O)NC(=O)NC2CCCC(O)C2)cc1` (stereo not drawn) [M3, 3-trans-hydroxycyclohexyl glyburide], the “amount … as percent of the total metabolites” value [3] is reported as 1% and the “amount … as percent of the total metabolites” value (human hepatic microsomes [4]) is reported as 6%.

For `COc1ccc(Cl)cc1C(=O)NCCc1ccc(S(=O)(=O)NC(=O)N[C@H]2CC[C@H](O)CC2)cc1` [M1, 4-trans-hydroxycyclohexyl glyburide], the “potency in lowering the concentration of glucose” value [5] is listed as “as potent as glyburide” and the “amount … as percent of the total metabolites” value [3] is listed as 4%.

With `CC(=O)N1CCN(c2ccc(OCC3COC(Cn4ccnc4)(c4ccc(Cl)cc4Cl)O3)cc2)CC1` (stereo not drawn) [ketoconazole] the “decrease in formation of M1” value (human hepatic microsomes [1]) was ≤ 20%, the “decrease in formation of M2b” value (human hepatic microsomes [1]) was ≤ 20% and the “decrease in formation of M3” value (human hepatic microsomes [1]) was ≥ 50%. For the same compound, the “decrease in formation of M4” value (human hepatic microsomes [1]) was ≥ 50%, the “decrease in formation of M5” value (human hepatic microsomes [1]) was 93% and the “decrease in formation of M2a” value (human hepatic microsomes [1]) was “approximately 40%”. The “decrease in the aggregate (total) amount of metabolites formed” value (human hepatic microsomes [1]) was 53%.

For `O=c1cc(-c2ccccc2)oc2c1ccc1ccccc12` [α-naphthoflavone], the “inhibition of CYP19” value (CYP19) is given as “inhibitor of CYP19”.

In the case of `COc1ccc(Cl)cc1C(=O)NCCc1ccc(S(=O)(=O)NC(=O)N[C@@H]2CCCC[C@H]2O)cc1` (relative stereo) [M4, 2-trans-hydroxycyclohexyl glyburide], the “amount … as percent of the total metabolites” value [3] is reported as 1% and the “amount … as percent of the total metabolites” value (human hepatic microsomes [4]) is reported as 4%.

In the case of `COc1ccccc1Oc1c(NS(=O)(=O)c2ccc(C(C)(C)C)cc2)nc(-c2ncccn2)nc1OCCO` [bosentan], the “effect of administration on plasma levels of glyburide” value ([6]; ref [18]) is given as “lowered plasma levels of glyburide”.

In the case of `CO[C@H]1/C=C/O[C@@]2(C)Oc3c(C)c(O)c4c(O)c(c(/C=N/N5CCN(C)CC5)c(O)c4c3C2=O)NC(=O)/C(C)=C\C=C\[C@H](C)[C@H](O)[C@@H](C)[C@@H](O)[C@@H](C)[C@H](OC(C)=O)[C@@H]1C` [rifampin], the “effect of administration on plasma levels of glyburide” value ([6]; ref [30]) is given as “lowered plasma levels of glyburide”.

For `COc1ccc(Cl)cc1C(=O)NCCc1ccc(S(=O)(=O)NC(=O)N[C@H]2CCC[C@@H](O)C2)cc1` (relative stereo) [M2b, 3-cis-hydroxycyclohexyl glyburide], the “potency in lowering the concentration of glucose” value [5] is listed as “as potent as glyburide”, the “amount … as percent of the total metabolites” value [3] is listed as 1% and the “amount … as percent of the total metabolites” value (human hepatic microsomes [4]) is listed as 12%.
